Calls of active or inactive are those of the source.
Assays:
[1] = biological target: Aryl hydrocarbon receptor (Homo sapiens, UniProt P35869); test: Luminescence-based cell-based high throughput dose response assay for activators of the Aryl Hydrocarbon Receptor (AHR). [Related pubchem assays: 2796 (Primary screen (AHR activators in singlicate)), 2845 (Confirmation screen (AHR activators in triplicate)), 434939 (Counterscreen (PXR activators in triplicate)), 2804 (Summary (AHR activators))]; type: ADME
[2] = biological target: T1, Heat shock factor protein 1 (Mus musculus, UniProt P38532); test: inhibition of MG132-induced HSE-luciferase signal, confirmation, cell-based, NIH3T3, luminescence, dose retest (AID 2382); type: functional;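 note: NIH3T3 fibroblasts with HSF1-driven luciferase reporter stressed by proteasome inhibitor MG132; luminescence from HSF1-driven luciferase expression after 8 hours of MG132 stress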
T1 sequence (P38532 whole entry): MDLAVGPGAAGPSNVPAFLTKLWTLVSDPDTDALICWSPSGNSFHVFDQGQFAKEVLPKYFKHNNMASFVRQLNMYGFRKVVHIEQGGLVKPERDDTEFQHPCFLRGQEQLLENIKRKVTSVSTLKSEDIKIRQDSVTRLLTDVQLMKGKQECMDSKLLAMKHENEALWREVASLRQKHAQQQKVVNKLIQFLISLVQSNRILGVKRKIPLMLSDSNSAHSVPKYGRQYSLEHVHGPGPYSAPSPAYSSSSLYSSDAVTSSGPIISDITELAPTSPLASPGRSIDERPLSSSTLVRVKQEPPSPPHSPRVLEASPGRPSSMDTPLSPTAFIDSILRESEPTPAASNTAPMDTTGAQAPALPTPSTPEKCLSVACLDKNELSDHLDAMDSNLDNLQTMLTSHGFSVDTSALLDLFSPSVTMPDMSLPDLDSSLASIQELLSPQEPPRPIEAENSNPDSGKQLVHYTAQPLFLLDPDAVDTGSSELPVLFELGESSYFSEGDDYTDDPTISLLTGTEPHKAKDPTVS

[3] = A High Throughput Confirmatory Assay used to Identify Novel Compounds that Inhibit Mycobacterium Tuberculosis in the absence of Glycerol.; type: functional
[4] = biological target: T2, Carboxy-terminal domain RNA polymerase II polypeptide A small phosphatase 1 (Homo sapiens, UniProt Q9GZU7); test: inhibitors of CTDSP1, concentration-response testing, biochemical assay, absorbance-based, actives from ultra-high-throughput screening (AID 540297); type: functional
T2 sequence (Q9GZU7 whole entry): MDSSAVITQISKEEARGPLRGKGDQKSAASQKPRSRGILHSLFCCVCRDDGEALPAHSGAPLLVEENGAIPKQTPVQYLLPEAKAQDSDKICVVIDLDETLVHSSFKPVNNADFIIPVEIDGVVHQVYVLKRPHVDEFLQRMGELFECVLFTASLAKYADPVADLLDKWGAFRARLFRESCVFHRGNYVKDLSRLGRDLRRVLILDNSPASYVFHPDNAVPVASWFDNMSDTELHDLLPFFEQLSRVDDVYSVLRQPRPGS

Prothrombin = Prothrombin (Bos taurus, UniProt P00735); test: thrombin inhibition, dose response, biochemical, fluorescence polarization, uHTS hits (AID 602369); type: functional
[5] = biological target: T3, Voltage-gated N-type calcium channel alpha-1B subunit/Amyloid beta A4 precursor protein-binding family A member 1 (Homo sapiens, UniProt Q00975+Q02410); type: protein assay
T3 sequence (Q00975 whole entry): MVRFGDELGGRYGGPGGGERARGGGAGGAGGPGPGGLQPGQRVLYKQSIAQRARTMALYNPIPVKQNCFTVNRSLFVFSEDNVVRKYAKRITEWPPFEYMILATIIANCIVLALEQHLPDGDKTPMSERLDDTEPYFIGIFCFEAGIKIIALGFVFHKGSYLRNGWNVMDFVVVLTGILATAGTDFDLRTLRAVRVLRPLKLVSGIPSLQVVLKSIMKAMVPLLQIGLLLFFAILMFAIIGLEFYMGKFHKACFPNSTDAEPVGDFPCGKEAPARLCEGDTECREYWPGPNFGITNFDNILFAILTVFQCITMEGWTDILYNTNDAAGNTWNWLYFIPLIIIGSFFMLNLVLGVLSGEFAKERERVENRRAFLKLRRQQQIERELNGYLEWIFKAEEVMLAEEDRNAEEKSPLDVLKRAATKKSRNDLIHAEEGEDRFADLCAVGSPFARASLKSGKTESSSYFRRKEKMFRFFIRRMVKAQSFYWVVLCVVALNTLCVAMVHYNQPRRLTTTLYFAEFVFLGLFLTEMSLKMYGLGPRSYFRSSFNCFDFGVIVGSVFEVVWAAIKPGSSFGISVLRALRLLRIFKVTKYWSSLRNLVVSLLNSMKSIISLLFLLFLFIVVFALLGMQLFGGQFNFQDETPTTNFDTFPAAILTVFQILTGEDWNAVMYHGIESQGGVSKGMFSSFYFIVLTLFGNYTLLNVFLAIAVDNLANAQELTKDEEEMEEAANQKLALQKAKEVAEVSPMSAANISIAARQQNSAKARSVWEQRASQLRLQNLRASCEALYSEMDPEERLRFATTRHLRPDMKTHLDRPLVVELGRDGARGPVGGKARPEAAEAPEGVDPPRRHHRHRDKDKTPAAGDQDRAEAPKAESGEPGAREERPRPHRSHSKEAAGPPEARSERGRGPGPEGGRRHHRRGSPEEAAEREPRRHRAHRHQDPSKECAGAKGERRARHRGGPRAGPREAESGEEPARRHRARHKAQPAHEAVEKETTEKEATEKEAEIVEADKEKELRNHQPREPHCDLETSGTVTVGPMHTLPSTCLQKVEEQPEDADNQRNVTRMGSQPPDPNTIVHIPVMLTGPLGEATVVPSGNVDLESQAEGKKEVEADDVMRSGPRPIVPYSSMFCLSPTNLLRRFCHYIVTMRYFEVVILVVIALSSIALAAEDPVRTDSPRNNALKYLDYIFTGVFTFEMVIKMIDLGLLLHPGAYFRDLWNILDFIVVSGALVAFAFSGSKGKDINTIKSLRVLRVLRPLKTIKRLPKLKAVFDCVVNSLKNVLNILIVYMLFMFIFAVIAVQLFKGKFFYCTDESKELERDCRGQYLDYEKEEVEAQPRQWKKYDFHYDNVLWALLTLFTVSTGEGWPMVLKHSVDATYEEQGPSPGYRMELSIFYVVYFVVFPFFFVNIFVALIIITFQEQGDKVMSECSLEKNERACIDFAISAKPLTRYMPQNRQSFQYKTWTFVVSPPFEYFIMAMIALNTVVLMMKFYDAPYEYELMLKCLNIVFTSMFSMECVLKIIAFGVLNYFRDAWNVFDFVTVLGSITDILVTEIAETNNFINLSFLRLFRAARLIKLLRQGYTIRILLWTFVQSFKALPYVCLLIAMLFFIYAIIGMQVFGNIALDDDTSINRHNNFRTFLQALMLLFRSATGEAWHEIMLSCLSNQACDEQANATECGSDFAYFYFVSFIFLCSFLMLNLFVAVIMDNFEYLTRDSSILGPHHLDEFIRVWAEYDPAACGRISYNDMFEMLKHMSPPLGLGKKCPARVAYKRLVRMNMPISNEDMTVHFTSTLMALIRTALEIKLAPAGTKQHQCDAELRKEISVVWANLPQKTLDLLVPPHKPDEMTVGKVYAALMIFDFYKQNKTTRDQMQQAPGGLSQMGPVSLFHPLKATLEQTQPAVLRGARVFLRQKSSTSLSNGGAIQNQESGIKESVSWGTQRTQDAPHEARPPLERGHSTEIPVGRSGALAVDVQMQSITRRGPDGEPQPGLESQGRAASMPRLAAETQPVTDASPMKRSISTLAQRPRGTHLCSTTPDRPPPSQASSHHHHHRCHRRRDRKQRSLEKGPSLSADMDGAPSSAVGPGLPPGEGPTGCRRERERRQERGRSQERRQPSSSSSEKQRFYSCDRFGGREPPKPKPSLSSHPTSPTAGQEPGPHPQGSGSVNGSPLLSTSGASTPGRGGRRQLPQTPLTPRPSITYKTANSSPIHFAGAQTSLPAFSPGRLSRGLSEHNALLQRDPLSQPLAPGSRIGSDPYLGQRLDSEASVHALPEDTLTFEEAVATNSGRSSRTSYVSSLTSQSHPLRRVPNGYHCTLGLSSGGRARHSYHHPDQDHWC
T3 sequence (Q02410 whole entry): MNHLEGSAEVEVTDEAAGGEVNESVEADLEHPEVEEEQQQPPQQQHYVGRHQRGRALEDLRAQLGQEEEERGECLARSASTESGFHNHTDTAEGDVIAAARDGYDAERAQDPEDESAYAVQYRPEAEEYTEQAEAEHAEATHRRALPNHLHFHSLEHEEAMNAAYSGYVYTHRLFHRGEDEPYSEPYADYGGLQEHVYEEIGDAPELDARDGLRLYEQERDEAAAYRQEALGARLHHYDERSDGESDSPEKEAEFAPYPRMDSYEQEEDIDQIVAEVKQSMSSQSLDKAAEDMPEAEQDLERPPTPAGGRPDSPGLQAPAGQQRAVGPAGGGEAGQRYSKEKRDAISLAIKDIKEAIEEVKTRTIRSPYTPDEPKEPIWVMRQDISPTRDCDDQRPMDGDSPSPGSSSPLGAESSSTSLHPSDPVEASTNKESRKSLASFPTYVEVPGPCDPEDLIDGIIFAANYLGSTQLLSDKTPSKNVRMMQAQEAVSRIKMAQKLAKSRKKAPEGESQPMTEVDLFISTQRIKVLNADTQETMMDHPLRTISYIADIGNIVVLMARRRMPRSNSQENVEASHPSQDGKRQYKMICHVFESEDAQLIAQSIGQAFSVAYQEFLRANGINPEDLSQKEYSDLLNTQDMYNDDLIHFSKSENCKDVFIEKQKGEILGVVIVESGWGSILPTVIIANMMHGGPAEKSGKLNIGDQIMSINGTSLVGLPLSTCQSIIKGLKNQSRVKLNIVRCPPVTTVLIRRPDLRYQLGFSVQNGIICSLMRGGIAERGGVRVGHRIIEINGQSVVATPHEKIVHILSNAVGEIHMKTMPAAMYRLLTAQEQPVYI

[6] = biological target: T3, Voltage-gated N-type calcium channel alpha-1B subunit/Amyloid beta A4 precursor protein-binding family A member 1; type: protein assay; remark: listed apart in the source
[7] = biological target: 26S proteasome non-ATPase regulatory subunit 14 (Homo sapiens, UniProt O00487); test: inhibition of proteasome subunit RPN11 – biochemical, fluorescence polarization, uHTS hits, confirmation (AID 602368); type: functional
26S proteasome non-ATPase regulatory subunit 14, sequence (O00487 whole entry): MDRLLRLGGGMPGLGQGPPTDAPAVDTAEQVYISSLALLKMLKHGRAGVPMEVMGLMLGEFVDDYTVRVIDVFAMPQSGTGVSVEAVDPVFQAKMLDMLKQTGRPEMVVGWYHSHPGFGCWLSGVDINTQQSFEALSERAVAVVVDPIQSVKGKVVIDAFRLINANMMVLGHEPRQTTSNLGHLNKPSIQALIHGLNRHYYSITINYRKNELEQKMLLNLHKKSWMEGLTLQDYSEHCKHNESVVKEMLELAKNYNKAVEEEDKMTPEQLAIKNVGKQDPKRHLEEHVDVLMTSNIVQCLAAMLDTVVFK

[8] = biological target: 72 kDa type IV collagenase (Homo sapiens, UniProt P08253); test: Dose Response validation of uHTS RPN11 inhibitor hits using a MMP-2 Fluorescence assay.; type: functional
INS1 = test: beta cell apoptosis inhibitors, cytokine rescue, dose response, luminescence, retest (AID 449756); type: functional, cell-based; details: Rattus norvegicus;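 note: cell death triggered by IL-1 beta plus TNF-alpha plus IFN-gamma mixture; protective hits raise ATP signal compared with cytokine alone wells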
[9] = cytotoxicity toward NIH3T3 fibroblasts, dose response, counter-screen, cell-based, ATP luminescence, mouse fibroblasts (AID 2010); type: functional;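 note: cells exposed to compound for about 90 hours before reading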
[10] = inhibitors of intracellular T. cruzi replication, confirmation, NIH3T3 host cells, beta-gal luminescence (AID 2044); type: functional, cell-based;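 note: intracellular parasites grown in NIH/3T3 mouse fibroblasts as host cells; luminescent beta-galactosidase reporter signal from transgenic T. cruzi replicating inside host cells; inhibitors lower the luminescence signal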
[11] = biological target: 5-hydroxytryptamine receptor 1E (Homo sapiens, UniProt P28566); test: Counterscreen assay for S1P3 antagonists: Dose response cell-based high throughput screening assay to identify antagonists of the 5-Hydroxytryptamine Receptor Subtype 1E (5HT1E). [Related pubchem assays: 1429, 485 ]; type: functional
[12] = biological target: Sphingosine 1-phosphate receptor 3 (Homo sapiens, UniProt Q99500); test: Dose response cell-based high throughput screening assay for antagonists of the Sphingosine 1-Phosphate Receptor 3 (S1P3). [Related pubchem assays: 1429, 485 ]; type: functional
[13] = biological target: Voltage-gated inwardly rectifying potassium channel KCNH2 (Homo sapiens, UniProt Q12809); details: Potency;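 note: confirmatory quantitative high-throughput screen measuring inhibition of hERG channel activity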
Danio rerio = test: In Vivo Angiogenesis Dose-Response Confirmation. [Related pubchem assays: 732 (Assay preceding this confirmatory assay.)]; type: functional, organism-based
HEK293 [14] = test: cells; type: functional, cell-based; details: Homo sapiens
[15] = biological target: Neuropeptide Y receptor type 1 (Homo sapiens, UniProt P25929); test: NPY-Y1 receptor antagonist potency, dose response, cell-based (AID 1277); type: functional
HEK293 [16] = test: NOD2 signaling inhibitors in MDP-stimulated cells, cell-based, uHTS, luminescence (AID 2001); type: functional; details: Homo sapiens
[17] = biological target: T4, Microphthalmia-associated transcription factor (Homo sapiens, UniProt O75030); test: TRPM1 promoter luciferase signal decrease, dose response, MITF inhibitor project, cell-based, SK-MEL-5, cherry-picked, set 3 (AID 493073); type: functional
T4 sequence (O75030 whole entry): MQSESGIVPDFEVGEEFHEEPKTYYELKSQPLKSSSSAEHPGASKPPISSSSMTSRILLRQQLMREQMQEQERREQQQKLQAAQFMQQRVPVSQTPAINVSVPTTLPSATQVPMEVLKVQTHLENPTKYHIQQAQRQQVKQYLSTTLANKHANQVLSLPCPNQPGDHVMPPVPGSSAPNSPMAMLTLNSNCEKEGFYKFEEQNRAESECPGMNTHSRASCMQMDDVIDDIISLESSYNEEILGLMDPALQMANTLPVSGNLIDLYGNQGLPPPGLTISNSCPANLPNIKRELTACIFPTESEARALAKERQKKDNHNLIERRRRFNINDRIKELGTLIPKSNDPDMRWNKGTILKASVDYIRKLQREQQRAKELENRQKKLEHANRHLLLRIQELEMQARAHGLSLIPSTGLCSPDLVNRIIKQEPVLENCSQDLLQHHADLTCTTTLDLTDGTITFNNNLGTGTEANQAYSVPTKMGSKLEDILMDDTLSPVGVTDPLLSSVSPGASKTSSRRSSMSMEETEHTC

HEK293 [18] = test: NOD1 signaling inhibitors, primary screen, cell-based, luminescence, uHTS (AID 1578); type: functional; details: Homo sapiens
HEK293 [19] = test: cells; type: functional, cell-based; details: Homo sapiens; remark: listed apart in the source
[20] = biological target: Neuropeptide Y receptor type 2 (Homo sapiens, UniProt P49146); test: NPY-Y2 antagonist potency, selectivity check, dose response, counter-screen for NPY-Y1 antagonist project, cell-based (AID 1278); type: functional
[21] = biological target: Long-chain-fatty-acid--AMP ligase FadD28 (Mycobacterium tuberculosis, UniProt P9WQ59); test: Fluorescence polarization aasay to screen for inhibitors that compete for the binding of FadD28 to a bisubstrate Measured in Biochemical System Using Plate Reader - 2147-01_Inhibitor_Dose_CherryPick_Activity.; type: functional, Mycobacterium tuberculosis H37Rv
14-3-3 protein gamma = 14-3-3 protein gamma (Homo sapiens, UniProt P61981); test: modulators of 14-3-3 gamma client binding – dose response (AID 711); type: functional
14-3-3 protein gamma, sequence (P61981 whole entry): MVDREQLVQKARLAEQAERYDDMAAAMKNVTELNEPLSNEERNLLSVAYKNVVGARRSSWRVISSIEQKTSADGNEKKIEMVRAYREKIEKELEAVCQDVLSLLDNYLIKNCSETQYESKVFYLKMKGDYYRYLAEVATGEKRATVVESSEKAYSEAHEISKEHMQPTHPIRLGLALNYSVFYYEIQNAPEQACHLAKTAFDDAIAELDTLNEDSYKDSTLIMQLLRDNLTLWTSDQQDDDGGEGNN

[22] = biological target: T5, Polyadenylate-binding protein 1 (Homo sapiens, UniProt P11940); test: PABP1 MLLE–PAM2 binding inhibitor potency, dose response, biochemical, fluorescence polarization, FITC-PAM2 peptide (AID 602259); type: functional; details: read-out: IC50_Mean
T5 sequence (P11940 whole entry): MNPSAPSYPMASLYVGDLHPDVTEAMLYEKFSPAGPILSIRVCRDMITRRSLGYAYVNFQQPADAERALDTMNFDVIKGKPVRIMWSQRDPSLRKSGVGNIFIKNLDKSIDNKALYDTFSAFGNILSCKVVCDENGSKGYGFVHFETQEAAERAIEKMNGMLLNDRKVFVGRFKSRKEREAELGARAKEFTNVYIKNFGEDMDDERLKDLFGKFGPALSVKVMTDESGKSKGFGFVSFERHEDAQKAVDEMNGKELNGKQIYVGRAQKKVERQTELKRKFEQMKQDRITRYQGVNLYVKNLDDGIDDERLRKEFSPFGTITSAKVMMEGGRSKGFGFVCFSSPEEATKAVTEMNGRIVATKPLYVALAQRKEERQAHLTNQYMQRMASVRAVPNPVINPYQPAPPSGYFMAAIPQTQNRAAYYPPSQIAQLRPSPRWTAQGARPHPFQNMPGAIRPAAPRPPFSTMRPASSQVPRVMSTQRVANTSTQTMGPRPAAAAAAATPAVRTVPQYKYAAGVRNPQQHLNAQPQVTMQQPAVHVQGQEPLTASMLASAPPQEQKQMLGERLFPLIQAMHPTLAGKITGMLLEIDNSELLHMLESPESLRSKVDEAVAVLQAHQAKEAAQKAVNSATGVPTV

[23] = biological target: T6, Female germline-specific tumor suppressor gld-1 (Caenorhabditis elegans, UniProt Q17339); test: inhibitors of GLD-1 binding to TGE RNA, dose response, biochemical, fluorescence polarization, C. elegans (AID 2802);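 note: fluorescence polarization of labeled TGE RNA bound by purified gld-1 protein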
T6 sequence (Q17339 whole entry): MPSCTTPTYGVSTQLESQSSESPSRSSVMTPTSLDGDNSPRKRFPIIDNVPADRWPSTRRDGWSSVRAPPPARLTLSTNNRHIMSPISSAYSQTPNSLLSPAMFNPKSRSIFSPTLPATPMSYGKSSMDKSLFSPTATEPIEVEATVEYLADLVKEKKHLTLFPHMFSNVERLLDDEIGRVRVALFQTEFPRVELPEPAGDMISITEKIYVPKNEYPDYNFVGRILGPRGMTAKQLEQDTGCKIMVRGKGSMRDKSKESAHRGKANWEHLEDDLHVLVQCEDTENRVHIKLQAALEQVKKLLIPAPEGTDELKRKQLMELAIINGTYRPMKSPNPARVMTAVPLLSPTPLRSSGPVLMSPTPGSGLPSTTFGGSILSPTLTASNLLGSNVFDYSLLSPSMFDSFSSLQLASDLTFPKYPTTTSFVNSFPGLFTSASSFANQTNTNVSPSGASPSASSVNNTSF

Protein Rev = biological target: T7, Protein Rev (Human immunodeficiency virus type 1 group M subtype B (isolate HXB2)(HIV-1), UniProt P04618); test: inhibitors of Rev binding to RRE RNA, dose response, biochemical, fluorescence polarization, HIV-1 (AID 434976); set-up: species or system Human immunodeficiency virus 1
T7 sequence (P04618 whole entry): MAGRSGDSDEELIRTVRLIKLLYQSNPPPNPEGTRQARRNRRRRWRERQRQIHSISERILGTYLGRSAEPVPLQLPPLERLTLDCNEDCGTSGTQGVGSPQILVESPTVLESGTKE

[24] = biological target: T5, Polyadenylate-binding protein 1; test: PABP1 MLLE–PAM2 interaction inhibitors, dose response, miRNA deadenylation inhibitor project, biochemical, fluorescence polarization, Cy5-PAM2 peptide, secondary (AID 602260); type: functional; details: read-out: IC50_Mean
Estrogen receptor beta [25] = biological target: T8, Estrogen receptor beta (Homo sapiens, UniProt Q92731); test: ERβ–SRC-3 coactivator interaction inhibitors, confirmation, orthogonal assay, biochemical, ELISA, streptavidin-HRP readout (AID 1060)
T8 sequence (Q92731 whole entry): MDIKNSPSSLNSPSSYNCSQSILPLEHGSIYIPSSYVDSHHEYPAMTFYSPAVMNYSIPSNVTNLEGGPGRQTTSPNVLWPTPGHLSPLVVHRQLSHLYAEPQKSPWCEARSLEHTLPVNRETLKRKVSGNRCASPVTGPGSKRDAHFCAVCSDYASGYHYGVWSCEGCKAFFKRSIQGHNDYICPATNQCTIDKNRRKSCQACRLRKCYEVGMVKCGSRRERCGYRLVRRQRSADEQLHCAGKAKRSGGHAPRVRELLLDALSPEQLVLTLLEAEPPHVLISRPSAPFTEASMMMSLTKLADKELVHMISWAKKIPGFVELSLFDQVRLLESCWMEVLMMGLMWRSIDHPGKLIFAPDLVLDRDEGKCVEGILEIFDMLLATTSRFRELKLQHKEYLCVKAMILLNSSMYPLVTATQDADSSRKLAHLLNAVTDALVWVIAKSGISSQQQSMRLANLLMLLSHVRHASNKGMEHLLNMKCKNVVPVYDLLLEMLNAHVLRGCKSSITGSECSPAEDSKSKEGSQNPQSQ

Estrogen receptor beta [26] = biological target: T8, Estrogen receptor beta

SMILES: COCC(=O)Nc1nnc(-c2cccs2)s1
- EC50 [1]: 6.26 µM (active)

SMILES: CC(=O)Oc1ccc(/C=N\NC(=O)c2cc3c(ccc4ccccc43)o2)cc1
- EC50 [2]: > 195 µM (not active)
- IC50 [3]: > 100 µM (active)
- IC50 [4]: 4.3 µM (active)
- IC50 (Prothrombin): 75.6 µM (active)
- IC50 [5]: > 50 µM (inactive)
- IC50 [6]: 4.06 µM (active)
- IC50 [7]: 10.9 µM (active)
- IC50 [8]: 30 µM (active)

SMILES: O=C(Nc1ccc(OC(F)F)c(Cl)c1)C(c1ccccc1)c1ccccc1
- AC50 (INS1): 8.95 µM (active)
- EC50 [9]: > 60 µM (inconclusive)
- EC50 [10]: 1.29 µM (active)
- IC50 [11]: 1.25 µM (active)
- IC50 [12]: 4.07 µM (active)

SMILES: CN(C)c1ccc(/C=C2\C(=O)Nc3ccccc32)cc1
- AC50 [13]: 14.1 µM (inconclusive)
- IC50 (Danio rerio): > 100 µM (not active)

SMILES: CC1CC(C)CN(C2=CC(=[N+]3CCCC3)CC(C)(C)C2)C1 (stereo not drawn)
- IC50 (HEK293 [14]): 7.24 µM (active)
- EC50 [9]: > 60 µM (not active)
- EC50 [10]: 0.159 µM (active)
- IC50 [15]: 15.1 µM (not active)
- IC50 (HEK293 [16]): 12.3 µM (inactive)
- AC50 [17]: 2.24 µM (active)
- EC50 (HEK293 [18]): 2.22 µM (active)
- IC50 (HEK293 [19]): > 20 µM (inactive)
- IC50 [20]: > 35 µM (not active)

SMILES: CCn1c(CSc2nccn2C)nc2cc(C(=O)O)ccc21
- AC50 [21]: > 100 µM (inactive)
- IC50 (14-3-3 protein gamma): > 50 µM (not active)
- IC50 [22]: 36.7 µM (inactive)
- IC50 [23]: 14.9 µM (inactive)
- IC50 (Protein Rev): 19.7 µM (not active)
- IC50 [24]: 62.1 µM (inactive)

SMILES: CN1C(=O)CC(C(=O)O)S/C1=N/c1cc(Cl)c(O)c(Cl)c1 (stereo not drawn)
- IC50 (Estrogen receptor beta [25]): > 109 µM (not active)
- IC50 (Estrogen receptor beta [26]): 26.9 µM (active)

Source: ChEMBL document CHEMBL1201862, “PubChem BioAssay data set” (2004)
